Data: PMC7050258, “Inhibition of MGAT2 modulates fat‐induced gut peptide release and fat intake in normal mice and ameliorates obesity and diabetes in ob/ob mice fed on a high‐fat diet” (FEBS Open Bio, 2020)
Values joined by “and” are separate entries in the source; they are usually repeats but may differ in a detail not shown here. Equal entries are not always repeated.

How the values were obtained:
DGAT1 human = target: T1, DGAT1 human (Homo sapiens, UniProt O75907); experiment: in vitro inhibitory activity against DGAT1; assay type: biochemical
T1 sequence (O75907 1-488): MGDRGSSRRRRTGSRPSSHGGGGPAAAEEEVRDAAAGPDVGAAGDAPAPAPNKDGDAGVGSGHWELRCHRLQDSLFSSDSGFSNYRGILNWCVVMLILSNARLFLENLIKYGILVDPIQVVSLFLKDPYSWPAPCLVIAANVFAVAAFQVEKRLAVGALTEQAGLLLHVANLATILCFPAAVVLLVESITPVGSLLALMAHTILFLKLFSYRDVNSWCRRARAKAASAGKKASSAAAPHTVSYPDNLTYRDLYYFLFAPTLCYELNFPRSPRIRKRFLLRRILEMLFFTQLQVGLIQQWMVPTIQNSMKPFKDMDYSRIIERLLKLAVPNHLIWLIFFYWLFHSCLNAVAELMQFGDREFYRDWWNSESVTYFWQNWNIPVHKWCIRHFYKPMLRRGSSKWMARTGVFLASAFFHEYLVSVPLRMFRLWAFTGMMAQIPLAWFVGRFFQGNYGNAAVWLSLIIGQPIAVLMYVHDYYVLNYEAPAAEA
Protocol: (§1) CpdB, CpdA, and pioglitazone were synthesized at Takeda Pharmaceutical Co., Ltd. (Tokyo, Japan). The in vitro inhibitory activities of CpdB and CpdA against MGAT2 and related acyltransferases (DGAT1, DGAT2, and ACAT1) were evaluated as described in our previous report 17 and patent application 19. Liraglutide (Victoza) was purchased from Novo Nordisk Pharma Ltd. (Bagsvaerd, Denmark). All other chemicals were of analytical grade and purchased from Wako Pure Chemicals (Osaka, Japan).

[1] = Pharmacokinetics of CpdB in mice; assay type: in vivo; conditions: C57BL/6J, mouse, plasma, 30 mg·kg^−1, 30 mg/kg single oral, mice fed an HFD, read-out: average plasma CpdB level 24 h after administration
Protocol: Fifty‐four‐week‐old C57BL/6J mice fed an HFD (45% kcal fat, 4.7 kcal·g^−1; D12451; Research Diets, Inc., New Brunswick, NJ, USA) were given a single oral administration of CpdB (30 mg·kg^−1). Blood samples were collected at 0.25, 0.5, 1, 2, 4, 8, and 24 h after the administration. Concentration of plasma CpdB in each sample was measured using liquid chromatography with tandem mass spectrometry as described in our previous report 18.

human MGAT2 = human MGAT2 (Homo sapiens, UniProt Q3SYC2); experiment: in vitro inhibitory activity against MGAT2 (human); assay type: biochemical
Protocol: as §1

ACAT1 human = target: T2, ACAT1 human (Homo sapiens, UniProt P35610); experiment: in vitro inhibitory activity against ACAT1; assay type: biochemical
T2 sequence (P35610 1-550): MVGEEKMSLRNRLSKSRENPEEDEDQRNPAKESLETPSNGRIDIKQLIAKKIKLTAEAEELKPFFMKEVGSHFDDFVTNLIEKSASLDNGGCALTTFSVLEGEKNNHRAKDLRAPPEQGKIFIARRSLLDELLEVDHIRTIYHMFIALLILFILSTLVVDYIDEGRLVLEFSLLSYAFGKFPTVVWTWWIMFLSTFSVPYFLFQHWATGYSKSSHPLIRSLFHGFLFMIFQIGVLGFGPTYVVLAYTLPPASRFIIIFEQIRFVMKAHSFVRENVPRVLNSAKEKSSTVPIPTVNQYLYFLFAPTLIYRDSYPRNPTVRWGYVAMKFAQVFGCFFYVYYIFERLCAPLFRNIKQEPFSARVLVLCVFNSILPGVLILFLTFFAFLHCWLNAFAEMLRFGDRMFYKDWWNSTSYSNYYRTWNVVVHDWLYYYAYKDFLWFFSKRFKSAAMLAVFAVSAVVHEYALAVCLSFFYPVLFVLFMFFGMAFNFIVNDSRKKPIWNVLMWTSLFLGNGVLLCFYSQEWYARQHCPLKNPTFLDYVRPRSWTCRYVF
Protocol: as §1

C57BL/6J mice = experiment: Oral meal tolerance test (MTT), plasma chylomicron TG; assay type: in vivo, mouse; conditions: for Plasma CM/TG AUC (0-4 h), AVE: mean, N=6; for Plasma CM/TG AUC (0-4 h), individual animal: single animal values
Protocol: Overnight‐fasted C57BL/6J mice underwent an MTT in the morning. Vehicle, CpdA (3, 10 mg·kg^−1), or Cpd B (3, 10 mg·kg^−1) was administered by gavage. The compound was suspended in 0.5% methylcellulose. […] Thirty minutes after injection, liquid meal (10 mL·kg^−1) comprising an admixture of corn oil and Ensure‐H (3 : 17 v/v) (Abbott Japan Co., Ltd., Tokyo, Japan) was orally loaded. Blood samples were collected preload (defined as 0 h) and 2 and 4 h after fat load, and plasma TG levels were measured. The area under the curve (AUC) of chylomicron TG (CM/TG), which is synthesized from dietary fat in the small intestine, was calculated by subtracting the plasma TG levels of the meal‐unloaded group from that of the meal‐loaded group.

Sequence of human MGAT2 (Q3SYC2 whole entry): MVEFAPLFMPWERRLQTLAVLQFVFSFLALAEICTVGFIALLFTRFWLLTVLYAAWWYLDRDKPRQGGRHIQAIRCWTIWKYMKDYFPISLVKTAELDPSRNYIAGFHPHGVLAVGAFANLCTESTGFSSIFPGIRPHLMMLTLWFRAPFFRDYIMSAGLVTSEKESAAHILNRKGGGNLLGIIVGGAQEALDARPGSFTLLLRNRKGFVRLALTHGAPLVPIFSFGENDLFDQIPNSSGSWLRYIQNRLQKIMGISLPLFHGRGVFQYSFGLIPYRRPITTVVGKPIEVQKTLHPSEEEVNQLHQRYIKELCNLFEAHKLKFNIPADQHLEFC

- IC50 (DGAT1 human): 2500 nM
- concentration at 24 h [1]: 580 nM
- selectivity against related acyltransferases (DGAT1, DGAT2, and ACAT1) (human MGAT2; MGAT2 vs DGAT1, DGAT2, ACAT1): greater than 300 fold
- IC50 (human MGAT2; human MGAT2): 8.1 nM
- IC50 (ACAT1 human): > 30000 nM
SMILES: CC(C)(OC(=O)N[C@H]1CC[C@H](OC(=O)N2CCc3cc(S(=O)(=O)Nc4c(F)cc(Cl)cc4F)cc(N4CCCC4=O)c32)CC1)C(F)(F)F [CpdB]
- Plasma CM/TG AUC (0-4 h), AVE (C57BL/6J mice; 3 mg/kg oral at -6.5 h): 3977.6 mg/dLxh
- Plasma CM/TG AUC (0-4 h), individual animal (C57BL/6J mice; 3 mg/kg oral at -6.5 h): 3401.5 mg/dLxh and 5885.8 mg/dLxh and 3966.4 mg/dLxh and 3504.4 mg/dLxh and 3174.7 mg/dLxh and 3932.8 mg/dLxh
- decrease of plasma CM/TG AUC compared with the vehicle group (C57BL/6J mice; 10 mg/kg oral at -6.5 h): 37%
- Plasma CM/TG AUC (0-4 h), AVE (C57BL/6J mice; 10 mg/kg oral at -6.5 h): 4365.7 mg/dLxh
- Plasma CM/TG AUC (0-4 h), individual animal (C57BL/6J mice; 10 mg/kg oral at -6.5 h): 5644.3 mg/dLxh and 4575.4 mg/dLxh and 4611.1 mg/dLxh and 3882.4 mg/dLxh and 3535.9 mg/dLxh and 3945.4 mg/dLxh
- Plasma CM/TG AUC (0-4 h), individual animal (C57BL/6J mice; 10 mg/kg oral at -16.5 h): 3845.1 mg/dLxh and 6306.3 mg/dLxh and 6722.1 mg/dLxh and 3383.1 mg/dLxh and 3918.6 mg/dLxh and 3231.9 mg/dLxh
- Plasma CM/TG AUC (0-4 h), AVE (C57BL/6J mice; 10 mg/kg oral): 4567.8 mg/dLxh
